These results are taken from article PMC5218480 (PLoS ONE, 2017).

The structures appear in SMILES notation.

The test system of this test is MV-4-11 cells. The experiment in a line: Gene expression microarray analysis (Affymetrix PrimeView) and GSEA. In kind it is cell-based, human. The conditions noted are these: MV-4-11, 48 hours, 1 μM each.

Take `Nc1ccc(-c2cccs2)cc1NC(=O)c1ccc2c(c1)cc(C1CC1)n2CCN1CCOCC1` [ACY-1035]: the “genes down-regulated greater than 2-fold relative to vehicle control” value was 72 genes.
